For seven compounds, Activity results are on record in ChEMBL document CHEMBL1155102, “Synthesis of all stereoisomers of KRN7000, the CD1d-binding NKT cell ligand” (Bioorg Med Chem Lett, 2008).

What all share (format): functional, cell-based
Experiment [1] concerns iNKT. The experiment is described as follows: Induction of IL4 production in mouse iNKT cells.
Experiment [2] has as its system iNKT. As to the kind of experiment: Induction of IFN-gamma production in human iNKT cells.
The test system of experiment [3] is iNKT. As to the kind of experiment: Induction of IL4 production in human iNKT cells.
Experiment [4] concerns iNKT. The experiment is described as follows: Induction of IL13 production in human iNKT cells.
In experiment [5] the test system is iNKT. As to the kind of experiment: Induction of proliferation in mouse iNKT cells.
Experiment [6] concerns iNKT. As to the kind of experiment: Induction of IFN-gamma production in mouse iNKT cells.
The test system of experiment [7] is iNKT. The experiment is described as follows: Induction of IL4/IL13 production in mouse iNKT cells.

Activity calls are given as the source filed them. The rule behind the calls is not given here.

Turning to `CCCCCCCCCCCCCCCCCCCCCCCCCC(=O)N[C@@H](CO[C@H]1O[C@H](CO)[C@H](O)[C@H](O)[C@H]1O)[C@@H](O)[C@@H](O)CCCCCCCCCCCCCC`, the outcome in the experiment on iNKT [1], in the experiment with iNKT [2], with iNKT [3] and in the experiment on iNKT [4] was Active.
`CCCCCCCCCCCCCCCCCCCCCCCCCC(=O)N[C@@H](CO[C@H]1O[C@H](CO)[C@H](O)[C@H](O)[C@H]1O)[C@H](O)[C@H](O)CCCCCCCCCCCCCC`: the result in the experiment on iNKT [5], in the experiment with iNKT [6], in the experiment with iNKT [7], in the experiment on iNKT [2], in the experiment with iNKT [3] and in the experiment with iNKT [4] was Active.
On to `CCCCCCCCCCCCCCCCCCCCCCCCCC(=O)N[C@H](CO[C@H]1O[C@H](CO)[C@H](O)[C@H](O)[C@H]1O)[C@@H](O)[C@H](O)CCCCCCCCCCCCCC`, for which the result in the experiment with iNKT [1] was Active.
With `CCCCCCCCCCCCCCCCCCCCCCCCCC(=O)N[C@@H](CO[C@H]1O[C@H](CO)[C@H](O)[C@H](O)[C@H]1O)[C@@H](O)[C@H](O)CCCCCCCCCCCCCC`, the outcome in the experiment with iNKT [5], in the experiment with iNKT [1], with iNKT [2], in the experiment on iNKT [3] and in the experiment with iNKT [4] was Active.
As to `CCCCCCCCCCCCCCCCCCCCCCCCCC(=O)N[C@H](CO[C@H]1O[C@H](CO)[C@H](O)[C@H](O)[C@H]1O)[C@@H](O)[C@@H](O)CCCCCCCCCCCCCC`, the result in the experiment on iNKT [5] was Active.
With `CCCCCCCCCCCCCCCCCCCCCCCCCC(=O)N[C@H](CO[C@H]1O[C@H](CO)[C@H](O)[C@H](O)[C@H]1O)[C@H](O)[C@H](O)CCCCCCCCCCCCCC`, the result with iNKT [2] and with iNKT [3] was inactive.
As to `CCCCCCCCCCCCCCCCCCCCCCCCCC(=O)N[C@@H](CO[C@H]1O[C@H](CO)[C@H](O)[C@H](O)[C@H]1O)[C@H](O)[C@@H](O)CCCCCCCCCCCCCC`, the result in the experiment with iNKT [5], with iNKT [6], in the experiment on iNKT [7], in the experiment on iNKT [2], with iNKT [3] and in the experiment on iNKT [4] was Active.
